Laboratory results: patent publication US10159640B2, “Prebiotic oral care compositions containing amino acids” (COLGATE-PALMOLIVE COMPANY, priority 2013, dated 2018)
Residues, ends and D or L forms follow the SMILES beside them.

Tests used:
Format in all cases: cell-based
[1] = test system: Actinomyces naeslundii; assay: Metabolic activity, Biolog phenotype microarray; settings: control without dipeptide = 1
Method: (§1) The extent of metabolic activity of the tested bacteria in the presence of the above-mentioned dipeptides after 24 hours and 48 hours was investigated through a high throughput phenotype microarray system (PM) for microbial cells (Biolog Inc.). Each PM can contain up to 95 different biochemical compounds (e.g. di-peptides) that may act as substrates for bacteria as well as one negative control, not containing the substrates. Microarray plates were used in which the different wells of each plate were pre-loaded (by the manufacturer, Biolog Inc.) with different di-peptides to be tested. Each bacterial species was tested using a separate microarray plate. Thus, a single bacterial species was tested with a variety of dipeptides on each particular plate. The microarrays are based on redox technology, using cell respiration as a universal reporter. Active cell respiration results in the reduction of a tetrazolium dye and in the formation of a strong color—for example, when using the tetrazolium dye “Biolog Redox Dye Mix D”, the color changes from transparent/colourless to purple when the dye is reduced. The observation of this color change indicates which of the substrates improve the metabolic activity and health of the cells. Each bacterial species was collected from blood agar plates (incubated for 48 hours anaerobically at 37° C.) and transferred to an IF-0 Base inoculation fluid (Biolog Inc.), which is a nutritionally poor medium. The resulting cell suspension was adjusted to a transmittance of 42% (relative to the transmittance of the base inoculation fluid with no bacterial species present) at 492 nm using a BioRad SmartSpec 3000 Photometer (the adjustment being effected by adding either further inoculation fluid or further bacteria until the transmittance of 42% was achieved). A 1:5 dilution of this suspension was prepared by mixing 3 mL of the 42% transmittance cell suspension with 15 mL of an inoculation fluid (which inoculation fluid was formed by mixing 11.6 mL sterile water, 62.5 mL IF-0 base inoculation fluid and 0.9 mL of the tetrazolium dye “Biolog Redox Dye mix D”), resulting in a final cell density which was equal to 85% transmittance using a BioRad SmartSpec 3000 Photometer. 680 μL of a 2M sodium succinate/200 μM ferric citrate solution in distilled water was added to 68 mL of the 85% transmittance cell suspension and 100 μL of this mixture was added to each well (the various di-peptides being already present in powder form in the relevant wells of the plate as obtained from the supplier i.e. Biolog Inc.). All plates were incubated in an anaerobic atmosphere at 37° C. Color changes were measured spectrophotometrically at 492 nm (Thermo Scientific Multiskan Ascent) at 24 hrs and 48 hrs using the same plate at both time points. […] After 24 hrs and 48 hrs under continuous shaking in a Multiscan microplate reader, the optical density (OD) of the synthetic medium at 24 hours and 48 hours was measured (using the microplate reader) at a wavelength of 492 nm for each combination of bacterium/dipeptide, and for each of their respective controls (i.e. which contained the particular bacterium but no dipeptide). […] The experiment was carried out three times for each combination of bacterium with dipeptide, with each repeat being carried out on a different day (thus providing three biological replicas). The controls were also carried out three times, as above. The values shown are the average (mean) of the three single values obtained (as detailed above) for each combination of bacterium with dipeptide, at 24 hrs and at 48 hrs.

[2] = test system: Actinomyces viscosus; assay: Metabolic activity, Biolog phenotype microarray; settings: control without dipeptide = 1
Method: as §1

[3] = test system: Aggregatibacter actinomycetemcomitans; assay: Metabolic activity, Biolog phenotype microarray; settings: control without dipeptide = 1
Method: as §1

[4] = test system: Capnocytophaga sputigena; assay: Metabolic activity, Biolog phenotype microarray; settings: control without dipeptide = 1
Method: as §1

[5] = test system: Fusobacterium nucleatum; assay: Metabolic activity, Biolog phenotype microarray; settings: control without dipeptide = 1
Method: as §1

[6] = test system: Porphyromonas gingivalis; assay: Metabolic activity, Biolog phenotype microarray; settings: control without dipeptide = 1
Method: as §1

[7] = test system: Prevotella intermedia; assay: Metabolic activity, Biolog phenotype microarray; settings: control without dipeptide = 1
Method: as §1

[8] = test system: Streptococcus gordonii; assay: Metabolic activity, Biolog phenotype microarray; settings: control without dipeptide = 1
Method: as §1

[9] = test system: Streptococcus mitis; assay: Metabolic activity, Biolog phenotype microarray; settings: control without dipeptide = 1
Method: as §1

[10] = test system: Streptococcus mutans; assay: Metabolic activity, Biolog phenotype microarray; settings: control without dipeptide = 1
Method: as §1

[11] = test system: Streptococcus salivarius; assay: Metabolic activity, Biolog phenotype microarray; settings: control without dipeptide = 1
Method: as §1

[12] = test system: Streptococcus sanguinis; assay: Metabolic activity, Biolog phenotype microarray; settings: control without dipeptide = 1
Method: as §1

[13] = test system: Streptococcus sobrinus; assay: Metabolic activity, Biolog phenotype microarray; settings: control without dipeptide = 1
Method: as §1

[14] = test system: Tannerella forsythia; assay: Metabolic activity, Biolog phenotype microarray; settings: control without dipeptide = 1
Method: as §1

[15] = test system: Veillonella parvula; assay: Metabolic activity, Biolog phenotype microarray; settings: control without dipeptide = 1
Method: as §1

[16] = test system: beneficial oral bacteria and pathogenic oral bacteria; assay: Metabolic activity, whole panel: prebiotic effect; settings: for prebiotic effects (metabolic activity): 24 hrs, threshold value of 2; for speed of metabolism by beneficial versus pathogenic bacteria: value of 2 reached at 24 hrs for beneficial but not pathogenic bacteria
Method: Substrates that were able to increase the metabolic activity of at least one of the above beneficial bacteria while not or only minimally increasing the growth of the pathogenic bacteria are considered to be prebiotic substrates. The extent of metabolic activity of the tested bacteria in the presence of the above-mentioned dipeptides after 24 hours and 48 hours was investigated through a high throughput phenotype microarray system (PM) for microbial cells (Biolog Inc.). Each PM can contain up to 95 different biochemical compounds (e.g. di-peptides) that may act as substrates for bacteria as well as one negative control, not containing the substrates. Microarray plates were used in which the different wells of each plate were pre-loaded (by the manufacturer, Biolog Inc.) with different di-peptides to be tested. Each bacterial species was tested using a separate microarray plate. Thus, a single bacterial species was tested with a variety of dipeptides on each particular plate. The microarrays are based on redox technology, using cell respiration as a universal reporter. Active cell respiration results in the reduction of a tetrazolium dye and in the formation of a strong color—for example, when using the tetrazolium dye “Biolog Redox Dye Mix D”, the color changes from transparent/colourless to purple when the dye is reduced. The observation of this color change indicates which of the substrates improve the metabolic activity and health of the cells. Each bacterial species was collected from blood agar plates (incubated for 48 hours anaerobically at 37° C.) and transferred to an IF-0 Base inoculation fluid (Biolog Inc.), which is a nutritionally poor medium. The resulting cell suspension was adjusted to a transmittance of 42% (relative to the transmittance of the base inoculation fluid with no bacterial species present) at 492 nm using a BioRad SmartSpec 3000 Photometer (the adjustment being effected by adding either further inoculation fluid or further bacteria until the transmittance of 42% was achieved). A 1:5 dilution of this suspension was prepared by mixing 3 mL of the 42% transmittance cell suspension with 15 mL of an inoculation fluid (which inoculation fluid was formed by mixing 11.6 mL sterile water, 62.5 mL IF-0 base inoculation fluid and 0.9 mL of the tetrazolium dye “Biolog Redox Dye mix D”), resulting in a final cell density which was equal to 85% transmittance using a BioRad SmartSpec 3000 Photometer. 680 μL of a 2M sodium succinate/200 μM ferric citrate solution in distilled water was added to 68 mL of the 85% transmittance cell suspension and 100 μL of this mixture was added to each well (the various di-peptides being already present in powder form in the relevant wells of the plate as obtained from the supplier i.e. Biolog Inc.). All plates were incubated in an anaerobic atmosphere at 37° C. Color changes were measured spectrophotometrically at 492 nm (Thermo Scientific Multiskan Ascent) at 24 hrs and 48 hrs using the same plate at both time points. […] After 24 hrs and 48 hrs under continuous shaking in a Multiscan microplate reader, the optical density (OD) of the synthetic medium at 24 hours and 48 hours was measured (using the microplate reader) at a wavelength of 492 nm for each combination of bacterium/dipeptide, and for each of their respective controls (i.e. which contained the particular bacterium but no dipeptide). […] The experiment was carried out three times for each combination of bacterium with dipeptide, with each repeat being carried out on a different day (thus providing three biological replicas). The controls were also carried out three times, as above. The values shown are the average (mean) of the three single values obtained (as detailed above) for each combination of bacterium with dipeptide, at 24 hrs and at 48 hrs. […] This value was selected in order to exclude low-stimulating metabolites and avoid false positive results.

Compound | metabolic activity: OD 492 nm divided by OD of control ([1]; 24 hrs) | metabolic activity: OD 492 nm divided by OD of control ([1]; 48 hrs) | metabolic activity: OD 492 nm divided by OD of control ([2]; 24 hrs) | metabolic activity: OD 492 nm divided by OD of control ([2]; 48 hrs) | metabolic activity: OD 492 nm divided by OD of control ([3]; 24 hrs) | metabolic activity: OD 492 nm divided by OD of control ([3]; 48 hrs) | metabolic activity: OD 492 nm divided by OD of control ([4]; 24 hrs) | metabolic activity: OD 492 nm divided by OD of control ([4]; 48 hrs) | metabolic activity: OD 492 nm divided by OD of control ([5]; 24 hrs) | metabolic activity: OD 492 nm divided by OD of control ([5]; 48 hrs) | metabolic activity: OD 492 nm divided by OD of control ([6]; 24 hrs) | metabolic activity: OD 492 nm divided by OD of control ([6]; 48 hrs) | metabolic activity: OD 492 nm divided by OD of control ([7]; 24 hrs) | metabolic activity: OD 492 nm divided by OD of control ([7]; 48 hrs) | metabolic activity: OD 492 nm divided by OD of control ([8]; 24 hrs) | metabolic activity: OD 492 nm divided by OD of control ([8]; 48 hrs) | metabolic activity: OD 492 nm divided by OD of control ([9]; 24 hrs) | metabolic activity: OD 492 nm divided by OD of control ([9]; 48 hrs) | metabolic activity: OD 492 nm divided by OD of control ([10]; 24 hrs) | metabolic activity: OD 492 nm divided by OD of control ([10]; 48 hrs) | further results
CC(C)C(NC(=O)C(N)CO)C(=O)O (stereo not drawn) [Ser-Val] (H-Ser-Val-OH; configuration not given here) | 1.4073 | 1.7338 | 2.1120 | 2.4349 | 1.4527 | 1.9697 | 1.4541 | 1.4933 | 1.3741 | 1.5983 | 1.3880 | 1.9267 | 1.4709 | 1.7953 | 1.4328 | 1.7640 | 1.4166 | 1.8051 | 1.4622 | 2.0721 | metabolic activity: OD 492 nm divided by OD of control ([11]; 24 hrs): 1.3826; metabolic activity: OD 492 nm divided by OD of control ([11]; 48 hrs): 1.9626; metabolic activity: OD 492 nm divided by OD of control ([12]; 24 hrs): 1.2030; metabolic activity: OD 492 nm divided by OD of control ([12]; 48 hrs): 1.5280; metabolic activity: OD 492 nm divided by OD of control ([13]; 24 hrs): 1.3133; metabolic activity: OD 492 nm divided by OD of control ([13]; 48 hrs): 1.8354; metabolic activity: OD 492 nm divided by OD of control ([14]; 24 hrs): 1.2842; metabolic activity: OD 492 nm divided by OD of control ([14]; 48 hrs): 1.7260; metabolic activity: OD 492 nm divided by OD of control ([15]; 24 hrs): 1.2776; metabolic activity: OD 492 nm divided by OD of control ([15]; 48 hrs): 1.3095; prebiotic effects (metabolic activity) [16]: exhibited prebiotic effects; speed of metabolism by beneficial versus pathogenic bacteria [16]: metabolized faster by the beneficial bacteria than by the pathogenic bacteria
Ser-Leu | 1.4949 | 1.8831 | 2.2523 | 2.5540 | 1.6871 | 2.2912 | 1.9645 | 1.6522 | 1.4813 | 1.7358 | 1.4626 | 1.8440 | 1.5403 | 1.8484 | 1.5333 | 1.8912 | 1.6052 | 2.0461 | 1.6244 | 2.2977 | metabolic activity: OD 492 nm divided by OD of control ([11]; 24 hrs): 1.4865; metabolic activity: OD 492 nm divided by OD of control ([11]; 48 hrs): 2.0833; metabolic activity: OD 492 nm divided by OD of control ([12]; 24 hrs): 1.2625; metabolic activity: OD 492 nm divided by OD of control ([12]; 48 hrs): 1.6049; metabolic activity: OD 492 nm divided by OD of control ([13]; 24 hrs): 1.4887; metabolic activity: OD 492 nm divided by OD of control ([13]; 48 hrs): 2.0704; metabolic activity: OD 492 nm divided by OD of control ([14]; 24 hrs): 1.3950; metabolic activity: OD 492 nm divided by OD of control ([14]; 48 hrs): 1.8466; metabolic activity: OD 492 nm divided by OD of control ([15]; 24 hrs): 1.4153; metabolic activity: OD 492 nm divided by OD of control ([15]; 48 hrs): 1.4281; prebiotic effects (metabolic activity) [16]: exhibited prebiotic effects; speed of metabolism by beneficial versus pathogenic bacteria [16]: metabolized faster by the beneficial bacteria than by the pathogenic bacteria
